In patent US7179446B2, “Simultaneous imaging of cardiac perfusion and a vitronectin receptor targeted imaging agent” (Bristol-Myers Squibb Pharma Company, priority 2000, dated 2007):

System: areas of endothelial damage, vulnerable plaque or angiogenesis in the heart
Assay: Simultaneous imaging of In-111 labeled vitronectin antagonist compound and Tc99m cardiac perfusion agent (Example 67)
Assay type: in vivo
Settings: human, 10–40 mCi, approximately 0.5 to 6 hours following injection
Experimental: The compound of Examples 54, 55 or 56 is administered to a human at a level of ˜1–10 mCi of ^111In before, together with, or after the adminstration of a ^99mTc cardiac perfusion imaging agent (e.g. 10–40 mCi of ^99mTc-Sestamibi). […] The simultaneous imaging of the In-111 labeled vitronectin antagonist compound and the Tc99m cardiac perfusion agent is carried out by a method such as that reported by White (White, S A, Mueller, D H, Smith H E, et al. J Nucl Med Tech 1984, 12: 124–125) or Hillel (Hillel P G, Tindale W B, Taylor C J, et al. Nucl Med Conmun 1998, 19, 761–769).

[C-]#[N+]CC(C)(C)OC.[C-]#[N+]CC(C)(C)OC.[C-]#[N+]CC(C)(C)OC.[C-]#[N+]CC(C)(C)OC.[C-]#[N+]CC(C)(C)OC.[C-]#[N+]CC(C)(C)OC.[Tc] [^99mTc-Sestamibi, hexakis methoxyisobutyl isonitrile Technetium(I)]
distribution of the ^99mTc perfusion agent: distributed in the myocardium in relation to regional myocardial blood flow
